This assay concerns the target T1, human TREM2 (Homo sapiens, UniProt Q9NZC2).
T1 construct: expressed in transfected cells; host or cells: HEK293T (HEK293T-hTREM2 cells)
Description: TREM2 agonist potency by cellular phosphorylation of Spleen Tyrosine Kinase (Syk), AlphaLisa, HEK293T-hTREM2 cells. The format is cell-based. As to conditions: hTREM2 EC50 Data (HEK293 Cells); Syk phosphorylation, AlphaLisa; read-out: hTREM2 EC50. The procedure, abridged:
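HEK293T cells co-expressing human TREM2 and DAP12, plated 20–24 h before use. Compounds applied 45 min at room temperature in assay buffer, then cells lysed and phospho-Syk quantified by AlphaLisa. Percent activation from a standard curve; EC50 from a four-parameter variable-slope fit.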
On the technique in general: Bead proximity is the source of the signal in Alpha formats.

The record followed here is US20260356841A1, “HETEROCYCLIC PYRIDINONE COMPOUNDS AS TRIGGERING RECEPTOR EXPRESSED ON MYELOID CELLS 2 AGONISTS AND METHODS OF USE” (Vigil Neuroscience, Inc., priority 2023, published 2026).

T1 sequence (Q9NZC2 19-230): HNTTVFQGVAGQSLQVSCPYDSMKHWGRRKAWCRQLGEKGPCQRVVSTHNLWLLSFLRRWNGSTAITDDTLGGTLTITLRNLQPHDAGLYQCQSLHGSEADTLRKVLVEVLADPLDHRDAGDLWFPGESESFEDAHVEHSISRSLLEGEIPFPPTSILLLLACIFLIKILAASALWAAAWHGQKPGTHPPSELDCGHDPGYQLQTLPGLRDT
T1 sequence (O43914 22-113 partner): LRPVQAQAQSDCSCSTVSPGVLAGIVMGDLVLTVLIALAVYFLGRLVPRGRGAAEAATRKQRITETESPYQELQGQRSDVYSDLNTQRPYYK

`Cc1cc2c(-c3ccc(F)cc3F)nc(N3C[C@@H](C)O[C@@H](c4ccc(=O)[nH]c4)C3)cc2nc1C` [Example 192, 5-((2S,6R)-4-(5-(2,4-difluorophenyl)-2,3-dimethyl-1,6-naphthyridin-7-yl)-6-methylmorpholin-2-yl)pyridin-2(1H)-one]: the EC50 (in general, the concentration giving half of the maximal effect) is 100 to 500 nM.

Consider `COc1nc2c(-c3ccc(C(F)(F)F)cc3F)nc(C3CCOC(c4ccc(=O)n(C)c4)C3)nc2nc1C` (centres unmarked) [Example 131], for which the EC50 is less than 100 nM.
